Legend:
Assay in all cases: relative viability (nuclei count vs DMSO), 5 days (fraction); higher = more cells survive
AZ505 + Lapatinib = compound: C1CCC(CC1)N(CCNCCC2=C3C(=C(C=C2)O)NC(=O)CO3)C(=O)CCNCCC4=CC(=C(C=C4)Cl)Cl [AZ505] + CS(=O)(=O)CCNCc1ccc(-c2ccc3ncnc(Nc4ccc(OCc5cccc(F)c5)c(Cl)c4)c3c2)o1 [Lapatinib] (partner 2 µM)
In short: (§1)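 Lung cancer cell lines were pin-tool dosed in 1536-well plates on the day after seeding, with either a lone drug or a fixed anchor-drug dose plus five library-drug doses (not always all listed) in √10 steps. Nuclei were counted on 4× images after 5 days. Relative viability is the ratio of treated-well to vehicle-well nuclei counts, with each value a median of duplicate plates.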

Dactolisib + Phenformin = compound: Cn1c(=O)n(-c2ccc(C(C)(C)C#N)cc2)c2c3cc(-c4cnc5ccccc5c4)ccc3ncc21 [Dactolisib] + N=C(N)NC(=N)NCCc1ccccc1 [Phenformin] (partner 250 µM)
In short: as §1

Dactolisib + Palbociclib = compound: Cn1c(=O)n(-c2ccc(C(C)(C)C#N)cc2)c2c3cc(-c4cnc5ccccc5c4)ccc3ncc21 [Dactolisib] + CC(=O)c1c(C)c2cnc(Nc3ccc(N4CCNCC4)cn3)nc2n(C2CCCC2)c1=O [Palbociclib] (partner 0.5 µM)
In short: as §1

Dactolisib + Luminespib = compound: Cn1c(=O)n(-c2ccc(C(C)(C)C#N)cc2)c2c3cc(-c4cnc5ccccc5c4)ccc3ncc21 [Dactolisib] + CCNC(=O)c1noc(-c2cc(C(C)C)c(O)cc2O)c1-c1ccc(CN2CCOCC2)cc1 [Luminespib] (partner 0.01 µM)
In short: as §1

Cell Line	relative viability (AZ505 + Lapatinib; first compound 0.08 µM)	relative viability (AZ505 + Lapatinib; first compound 0.253 µM)	relative viability (AZ505 + Lapatinib; first compound 0.8 µM)	relative viability (AZ505 + Lapatinib; first compound 2.53 µM)	relative viability (AZ505 + Lapatinib; first compound 8 µM)	relative viability (Dactolisib + Phenformin; first compound 0.002 µM)	relative viability (Dactolisib + Phenformin; first compound 0.006325 µM)	relative viability (Dactolisib + Phenformin; first compound 0.02 µM)	relative viability (Dactolisib + Phenformin; first compound 0.06325 µM)	relative viability (Dactolisib + Phenformin; first compound 0.2 µM)	relative viability (Dactolisib + Palbociclib; first compound 0.002 µM)	relative viability (Dactolisib + Palbociclib; first compound 0.006325 µM)	relative viability (Dactolisib + Palbociclib; first compound 0.02 µM)	relative viability (Dactolisib + Palbociclib; first compound 0.06325 µM)	relative viability (Dactolisib + Palbociclib; first compound 0.2 µM)	relative viability (Dactolisib + Luminespib; first compound 0.002 µM)	relative viability (Dactolisib + Luminespib; first compound 0.006325 µM)	relative viability (Dactolisib + Luminespib; first compound 0.02 µM)	relative viability (Dactolisib + Luminespib; first compound 0.06325 µM)	relative viability (Dactolisib + Luminespib; first compound 0.2 µM)
NCI-H1975	0.773	0.82	0.858	0.9	0.885	0.435	0.382	0.376	0.216	0.162	0.551	0.561	0.536	0.182	0.129	0.133	0.157	0.181	0.144	0.123
NCI-H1944	0.811	0.8	0.9	0.76	0.759	0.235	0.21	0.187	0.138	0.14	0.403	0.334	0.23	0.192	0.181	0.957	0.724	0.714	0.288	0.263
LU99A	0.915	0.965	0.931	1.04	1.01	0.871	0.761	0.682	0.443	0.258	0.419	0.37	0.297	0.216	0.181	0.257	0.228	0.29	0.202	0.192
NCI-H2347	0.555	0.64	0.607	0.508	0.772	0.731	0.409	0.381	0.329	0.264	0.505	0.448	0.401	0.402	0.358	0.49	0.433	0.467	0.286	0.284
NCI-H2009	0.864	0.928	1.07	0.665	0.86	0.553	0.467	0.474	0.308	0.198	0.235	0.202	0.235	0.153	0.118	1.14	1.05	0.89	1	0.362
HCC-15	0.741	0.809	0.861	0.805	0.871	0.482	0.488	0.449	0.291	0.184	0.778	0.723	0.715	0.471	0.28	0.38	0.303	0.507	0.173	0.142
HCC-44	0.926	1.09	0.974	1.11	1.06	0.274	0.203	0.171	–	0.166	1.04	1.02	1.01	0.99	0.919	0.914	1.04	0.943	0.379	0.644
COR-L23	0.873	0.987	0.878	0.82	0.74	0.508	0.417	0.429	0.229	0.159	0.327	0.282	0.228	0.135	0.0957	0.678	0.49	0.284	0.123	0.138
NCI-H727	0.702	0.765	0.743	0.66	0.781	0.653	0.588	0.528	0.359	0.309	–	0.693	0.658	0.581	0.513	0.417	0.419	0.351	0.436	0.447
NCI-H2087	0.856	1.01	0.983	1.31	0.958	0.622	0.454	0.378	0.286	0.123	0.275	0.232	0.221	0.172	0.142	0.281	0.164	0.146	0.128	0.121
BEN	0.645	0.69	0.728	0.718	1.02	0.231	0.263	0.245	0.248	0.237	0.479	0.477	0.473	0.458	0.426	0.382	0.234	0.366	0.25	0.268
EKVX	0.225	0.184	0.175	0.185	0.214	0.26	0.222	0.229	0.225	0.215	0.431	0.386	0.324	0.241	0.197	0.808	0.743	0.736	0.453	0.247
LXF-289	0.876	–	0.869	0.857	0.869	0.571	0.499	0.534	0.518	0.439	0.622	0.591	0.585	0.522	0.381	0.698	0.688	0.669	0.478	0.403
ABC-1	–	1.1	1.11	1.12	1.23	0.246	0.244	0.24	0.231	0.199	0.651	0.48	0.514	0.514	0.481	0.496	0.59	–	0.257	0.366
NCI-H650	0.849	0.925	1.18	1.06	1.06	0.549	0.475	0.433	0.389	0.315	0.387	0.33	0.334	0.279	0.204	0.779	0.778	0.787	0.443	0.369
NCI-H1650	0.699	0.707	0.794	0.742	0.909	0.355	0.41	0.454	0.267	0.232	0.357	0.348	0.298	0.191	0.142	0.19	0.185	0.192	0.206	0.202

— the supplement of paper PMC10307832
